Where a name gives a salt, the structure may show the parent alone. Read-outs that look alike come from different tables or passages of the source. Some results are limits rather than exact numbers.

Data on nine compounds can be found in patent US20050171161A1, “Method of treatment or prevention of obesity” (priority 2002, published 2005).

In one data set the target is T1, 11β-HSD1 enzyme (hHSD1) (Homo sapiens, UniProt P28845).
T1 construct: expressed in transfected cells; host or cells: CHO transfectants (microsomes)
In words: 11β-HSD1 inhibition, Scintillation Proximity Assay. It is filed as biochemical. To be noted: SPA, tritiated cortisone, NADPH. As to the method:
11β-HSD1 Inhibition Constants
(§1) In vitro enzymatic activity is assessed for test compounds via a Scintillation Proximity Assay (SPA). Tritiated-cortisone substrate, NADPH cofactor and titrated compound are incubated with 11β-HSD1 enzyme at 37° C. to allow conversion to cortisol to progress. Following this incubation, protein A coated SPA beads, pre-blended with anti-cortisol monoclonal antibody and a non-specific 11β-HSD inhibitor, are added to each well. The mixture is shaken at 15° C. and then read on a liquid scintillation counter suitable for 96 well plates.
(§2) Percent inhibition is calculated relative to a non-inhibited control well, and IC50 curves are generated.
(§3) This assay is similarly applied to 11β-HSD2. Tritiated cortisol and NAD are used as the substrate and cofactor, respectively. 40 μL of substrate (25 nM ^3H-Cortisone+1.25 mM NADPH in 50 mM HEPES Buffer, pH 7.4) are added to designated wells on a 96 well plate. Solid compound is dissolved in DMSO at 10 mM followed by a subsequent 50 fold dilution in DMSO. The diluted material is then titrated 4 fold, seven times. 1 μL of each titrated compound is then added in duplicate to the substrate. To start the reaction, 10 μL of 11β-HSD1 microsome from CHO transfectants is added to each well at the appropriate concentration to yield approximately 10% conversion of the starting material. For ultimate calculation of percent inhibition, a series of wells is added that represent the assay minimum and maximum: one set that contains substrate without compound or enzyme (background), and another set that contains substrate and enzyme without any compound (maximum signal). The plates are spun briefly at a low speed in a centrifuge to pool the reagents, sealed with an adhesive strip, mixed gently, and incubated at 37° C. for 2 hours. After incubation, 45 μL of SPA beads, pre-suspended with anti-cortisol monoclonal antibody and non-specific 11β-HSD inhibitor, are added to each well. The plates are resealed and shaken gently for greater than 1.5 hours at 15° C. Data is collected on a plate based liquid scintillation counter such as a Topcount. To control for inhibition of anti-cortisol antibody/cortisol binding, substrate spiked with 1.25 nM [3]H cortisol is added to designated single wells. 1 μL of 200 μM compound is added to each of these wells, along with 10 μL of buffer instead of enzyme. Any calculated inhibition is due to compound interfering with the cortisol binding to the antibody on the SPA beads.

A further data set concerns the target T2, 11β-HSD2 (hHSD2) (Homo sapiens, UniProt P80365).
T2 sequence (P80365 1-405): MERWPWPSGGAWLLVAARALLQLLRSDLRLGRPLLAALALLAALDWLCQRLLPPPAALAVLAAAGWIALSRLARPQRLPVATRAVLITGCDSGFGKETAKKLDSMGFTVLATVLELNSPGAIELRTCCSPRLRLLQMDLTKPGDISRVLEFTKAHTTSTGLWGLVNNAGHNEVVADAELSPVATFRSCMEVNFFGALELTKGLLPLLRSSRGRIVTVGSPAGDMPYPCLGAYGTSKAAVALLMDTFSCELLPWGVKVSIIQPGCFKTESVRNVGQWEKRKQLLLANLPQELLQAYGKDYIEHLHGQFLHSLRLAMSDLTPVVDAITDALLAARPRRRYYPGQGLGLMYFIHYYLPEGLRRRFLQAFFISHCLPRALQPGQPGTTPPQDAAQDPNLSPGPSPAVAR
In words: 11β-HSD2 inhibition, Scintillation Proximity Assay. As to conditions: SPA, tritiated cortisol, NAD. The format is biochemical. The method, then:
as §1, §2, §3

For data set [1], the target named is T3, recombinant human CB1 receptor (Homo sapiens, UniProt P21554).
T3 construct: expressed in transfected cells; host or cells: CHO cells (membranes)
In words: Cannabinoid Receptor-1 (CB1) Binding Assay. As to the method:
Cannabinoid Receptor-1 (CB1) Binding Assay.
Binding buffer contains 50 mM Tris-HCl, pH7.4, 2.5 mM EDTA, 5 mM MgCl2, 0.5 mg/ml fatty acid free bovine serum albumin and protease inhibitors (Cat#P8340, from Sigma). To initiate the binding reaction, 5 μl of radioligand solution is added, the mixture is incubated with gentle shaking on a shaker for 1.5 hours at 30° C. The binding is terminated by using 96-well harvester and filtering through GF/C filter presoaked in 0.05% polyethylenimine. The bound radiolabel is quantitated using scintillation counter.

The target in data set [2] is T4, recombinant human CB2 receptor (Homo sapiens, UniProt P34972).
T4 construct: expressed in transfected cells; host or cells: CHO cells (membranes)
In words: CB2 Receptor Binding Assay. As to the method:
CB2 Receptor Binding Assay
The binding assay for CB2 receptor is conducted similarly, with recombinant human CB2 receptor expressed in CHO cells.

For another data set, the target named is Potassium channel (Ikr) (Homo sapiens, UniProt Q12809). In words: Potassium channel (Ikr) binding. The source says:
(§4) Ion channel assays have also been reported in the literature. The following are representative.

A further data set relates to Calcium channel. In words: Calcium channel binding.
Description: as §4

A further data set deals with Sodium channel site 2. In words: Sodium channel site 2 binding.
Description: as §4

Where [3] appears, read: CHO cell membranes, [3H]CP-55940 0.6 nM, read-out: hCB1 IC50.

T4 sequence (P34972 whole entry): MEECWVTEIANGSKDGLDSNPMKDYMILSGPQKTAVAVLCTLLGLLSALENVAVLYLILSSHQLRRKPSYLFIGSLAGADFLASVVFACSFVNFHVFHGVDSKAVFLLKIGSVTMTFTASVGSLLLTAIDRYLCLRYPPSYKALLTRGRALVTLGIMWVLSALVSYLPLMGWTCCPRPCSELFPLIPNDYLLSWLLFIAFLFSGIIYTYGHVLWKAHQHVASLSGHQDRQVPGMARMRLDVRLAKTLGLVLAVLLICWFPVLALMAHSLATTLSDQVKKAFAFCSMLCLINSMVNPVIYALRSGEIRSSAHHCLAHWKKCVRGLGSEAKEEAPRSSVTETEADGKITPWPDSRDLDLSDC
T1 sequence (P28845 whole entry): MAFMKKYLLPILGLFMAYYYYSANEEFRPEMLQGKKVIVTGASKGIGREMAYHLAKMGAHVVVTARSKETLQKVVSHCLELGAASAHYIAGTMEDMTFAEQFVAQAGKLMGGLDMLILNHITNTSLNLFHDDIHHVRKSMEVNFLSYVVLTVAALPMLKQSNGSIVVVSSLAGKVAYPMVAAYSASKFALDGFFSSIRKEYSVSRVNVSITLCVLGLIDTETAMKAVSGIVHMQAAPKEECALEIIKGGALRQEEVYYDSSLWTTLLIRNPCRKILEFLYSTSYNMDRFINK
T3 sequence (P21554 whole entry): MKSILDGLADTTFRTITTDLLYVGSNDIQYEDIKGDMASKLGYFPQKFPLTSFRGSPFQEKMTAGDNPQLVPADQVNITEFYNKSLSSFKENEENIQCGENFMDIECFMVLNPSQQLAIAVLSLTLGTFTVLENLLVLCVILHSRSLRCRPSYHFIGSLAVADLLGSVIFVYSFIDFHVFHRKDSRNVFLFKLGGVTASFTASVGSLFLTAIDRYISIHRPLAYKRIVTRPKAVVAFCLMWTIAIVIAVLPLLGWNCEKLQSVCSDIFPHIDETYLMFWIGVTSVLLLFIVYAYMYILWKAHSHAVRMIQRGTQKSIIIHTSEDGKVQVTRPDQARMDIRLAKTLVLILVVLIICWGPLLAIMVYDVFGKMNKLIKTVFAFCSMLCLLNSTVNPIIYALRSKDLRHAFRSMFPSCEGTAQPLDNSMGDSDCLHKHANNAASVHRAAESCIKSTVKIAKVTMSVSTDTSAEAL
Chain of Potassium channel (Ikr) (Q12809 whole entry): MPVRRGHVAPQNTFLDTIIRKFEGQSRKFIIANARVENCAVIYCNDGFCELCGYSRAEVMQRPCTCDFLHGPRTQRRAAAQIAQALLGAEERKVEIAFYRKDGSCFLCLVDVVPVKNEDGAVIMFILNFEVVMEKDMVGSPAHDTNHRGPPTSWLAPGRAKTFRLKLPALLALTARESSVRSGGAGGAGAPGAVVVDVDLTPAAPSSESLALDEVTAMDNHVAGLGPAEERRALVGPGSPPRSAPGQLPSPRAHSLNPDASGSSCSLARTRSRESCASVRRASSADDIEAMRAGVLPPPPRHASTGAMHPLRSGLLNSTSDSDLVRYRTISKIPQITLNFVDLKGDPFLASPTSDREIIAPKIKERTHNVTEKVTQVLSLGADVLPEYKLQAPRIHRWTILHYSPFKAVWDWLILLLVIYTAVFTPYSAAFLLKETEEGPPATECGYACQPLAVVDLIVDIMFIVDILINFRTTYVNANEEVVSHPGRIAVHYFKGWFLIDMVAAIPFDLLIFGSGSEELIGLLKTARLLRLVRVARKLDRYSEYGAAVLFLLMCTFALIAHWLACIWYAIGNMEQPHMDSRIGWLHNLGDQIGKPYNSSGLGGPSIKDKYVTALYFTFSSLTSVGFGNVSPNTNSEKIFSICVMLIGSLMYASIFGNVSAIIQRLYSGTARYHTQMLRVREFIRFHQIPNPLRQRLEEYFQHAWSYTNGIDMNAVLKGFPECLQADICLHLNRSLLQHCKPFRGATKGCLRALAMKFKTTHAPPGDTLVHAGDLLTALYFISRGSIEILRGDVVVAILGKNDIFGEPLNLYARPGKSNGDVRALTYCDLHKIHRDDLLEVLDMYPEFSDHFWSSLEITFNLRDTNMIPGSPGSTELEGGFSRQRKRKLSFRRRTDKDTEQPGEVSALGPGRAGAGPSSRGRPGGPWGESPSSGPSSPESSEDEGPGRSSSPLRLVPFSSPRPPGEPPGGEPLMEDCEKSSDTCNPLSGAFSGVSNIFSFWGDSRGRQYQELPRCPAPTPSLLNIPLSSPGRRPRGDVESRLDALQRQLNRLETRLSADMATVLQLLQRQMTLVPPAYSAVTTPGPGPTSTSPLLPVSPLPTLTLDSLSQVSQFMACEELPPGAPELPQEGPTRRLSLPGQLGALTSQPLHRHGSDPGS

Regarding `C1CCCCc2nnc(C34CC5CC(CC(C5)C3)C4)n2CCCC1` [Compound 10, 3-adamantanyl-4,5,6,7,8,9,10,11,12,3a-decahydro-1,2,4-triazolo[4,3-a][11]annulene], the IC50 against 11β-HSD1 enzyme (hHSD1) was 100 to 1000 nM; at 11β-HSD2 (hHSD2) it was > 1000 nM.
For `Cc1ccc(-c2nc(C(=O)NC3CCCCC3)n(C)c2-c2ccc(C)cc2)cc1` [Compound 4, N-Cyclohexyl-4,5-di-(4-methylphenyl)-1-methylimidazole-2-carboxamide], the IC50 in data set [1] is 100 to 1000 nM; in data set [2] (CHO cells, read-out: hCB2 IC50), > 1000 nM.
On to `Cn1c(C(=O)NC2CCCCC2)nc(-c2ccc(Cl)cc2Cl)c1-c1ccc(Cl)cc1` [Compound 5, N-(Cyclohexyl)-4-(2,4-dichlorophenyl)-5-(4-chlorophenyl)-1-methylimidazole-2-carboxamide], for which the IC50 was < 10 nM in data set [1] and 100 to 1000 nM in data set [2]. The compound further showed an Ion Channel Values K at Potassium channel (Ikr) of 5.6 µM. The Ion Channel Values Ca in the data set with Calcium channel is 4600 nM. In the data set on Sodium channel site 2, the Ion Channel Values Na is 4 µM.
Turning to `Cn1c(C(=O)NN2CCCCC2)nc(-c2ccc(Cl)cc2Cl)c1-c1ccc(Cl)cc1` [Compound 2, N-(Piperidin-1-yl)-4-(2,4-dichlorophenyl)-5-(4-chlorophenyl)-1-methylimidazole-2-carboxamide], the IC50 in data set [1] (setting [3]) is < 10 nM; in data set [2] (CHO cells, read-out: hCB2 IC50), 100 to 1000 nM. This compound also yielded an Ion Channel Values K at Potassium channel (Ikr) of 1.3 µM. In addition, the Ion Channel Values Ca in the data set on Calcium channel amounted to 1200 nM. The compound also had an Ion Channel Values Na in the data set on Sodium channel site 2 of 6 µM.
Consider `Cc1ccc(-c2nc(C(=O)NN3CCCCC3)n(C)c2-c2ccc(C)cc2)cc1` [Compound 3, N-(Piperidin-1-yl)-4,5-di-(4-methylphenyl)-1-methylimidazole-2-carboxamide], for which, in data set [2] (CHO cells, read-out: hCB2 IC50), the IC50 is > 1000 nM.
As for `CCSc1nnc(C23CC4CC(CC(C4)C2)C3)n1CC` [Compound 8, 3-(1-adamantyl)-4-ethyl-5-(ethylthio)-4H-1,2,4-triazole], the IC50 against 11β-HSD1 enzyme (hHSD1) was 10 to 100 nM; at 11β-HSD2 (hHSD2), > 1000 nM.
Taken in the same sequence, the figures for `COc1cc(-c2nnc(C34CC5CC(CC(C5)C3)C4)n2C)cc(OC)c1OC` [Compound 9, 3-(1-adamantyl)-5-(3,4,5-trimethoxyphenyl)-4-methyl-4H-1,2,4-triazole] were < 10 nM and < 10 nM.
As to `Cn1c(C(=O)Nc2ccccc2)nc(-c2ccc(Cl)cc2Cl)c1-c1ccc(Cl)cc1` [Compound 6, N-(Phenyl)-4-(2,4-dichlorophenyl)-5-(4-chlorophenyl)-1-methylimidazole-2-carboxamide], the IC50 in data set [1] (setting [3]) is 10 to 100 nM; in data set [2] (CHO cells, read-out: hCB2 IC50), 100 to 1000 nM.
As for `CC12CC3(C)CC(C)(C1)CC(Cc1nnc4n1CCCCC4)(C2)C3` [Compound 7, 3-[(3,5,7-trimethyl-1-adamantyl)methyl]-6,7,8,9-tetrahydro-5H-[1,2,4]triazolo[4,3-a]azepine Trifluoroacetate Salt], the IC50 was 10 to 100 nM against 11β-HSD1 enzyme (hHSD1) and > 1000 nM at 11β-HSD2 (hHSD2).
